Results reported in PubChem BioAssay AID1963422 (Molecular Pharmacology Branch, DTP, NCI, 2024).

Test system: 463943-066-T-J2-PDC complex spheroid growth
Assay: Anticancer human tumor 463943-066-T-J2-PDC patient-derived colon adenocarcinoma cell line growth inhibition [Asc]
Conditions: for IC50: curve of first compound; for viability, T/C: stronger effect = lower value
Summary of the method: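 Complex solid-tumor spheroids incorporating human endothelial and mesenchymal stem cells received single agents or combinations over half-log dilution ranges anchored to clinical Cmax.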
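Further: compound exposure lasted 7 days.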
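Wherever viability, T/C is given: 100% = DMSO vehicle control wells.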

## NC(=O)C(=Cn1cnc(-c2cc(C(F)(F)F)cc(C(F)(F)F)c2)n1)c1cncnc1 + CCN1C(C(=O)NC23CCC(C(=O)O)(CC2)CC3)C(c2cccc(Cl)c2F)C2(C(=O)Nc3cc(Cl)ccc32)C12CCCCC2
Second compound 0.00949 µM
  IC50: > 300 nM
Second compound 0.03 µM
  IC50: > 300 nM
Second compound 0.0949 µM
  IC50: > 300 nM
Second compound 0.3 µM
  IC50: 156 nM
Second compound 0.949 µM
  IC50: 32.6 nM
Second compound 3 µM
  IC50: 15.1 nM
Second compound 0.00949 µM, first compound 0.000949 µM
  viability, T/C: 94.2%
Second compound 0.00949 µM, first compound 0.003 µM
  viability, T/C: 91.3%
Second compound 0.00949 µM, first compound 0.00949 µM
  viability, T/C: 82.5%
Second compound 0.00949 µM, first compound 0.03 µM
  viability, T/C: 87.4%
Second compound 0.00949 µM, first compound 0.0949 µM
  viability, T/C: 81%
Second compound 0.00949 µM, first compound 0.3 µM
  viability, T/C: 63.7%
Second compound 0.03 µM, first compound 0.000949 µM
  viability, T/C: 99.5%
Second compound 0.03 µM, first compound 0.003 µM
  viability, T/C: 92.6%
Second compound 0.03 µM, first compound 0.00949 µM
  viability, T/C: 81%
Second compound 0.03 µM, first compound 0.03 µM
  viability, T/C: 84.9%
Second compound 0.03 µM, first compound 0.0949 µM
  viability, T/C: 78.8%
Second compound 0.03 µM, first compound 0.3 µM
  viability, T/C: 62.5%
Second compound 0.0949 µM, first compound 0.000949 µM
  viability, T/C: 86.8%
Second compound 0.0949 µM, first compound 0.003 µM
  viability, T/C: 84.9%
Second compound 0.0949 µM, first compound 0.00949 µM
  viability, T/C: 80.7%
Second compound 0.0949 µM, first compound 0.03 µM
  viability, T/C: 78.6%
Second compound 0.0949 µM, first compound 0.0949 µM
  viability, T/C: 70.6%
Second compound 0.0949 µM, first compound 0.3 µM
  viability, T/C: 54.5%
Second compound 0.3 µM, first compound 0.000949 µM
  viability, T/C: 78.7%
Second compound 0.3 µM, first compound 0.003 µM
  viability, T/C: 75.4%
Second compound 0.3 µM, first compound 0.00949 µM
  viability, T/C: 68.7%
Second compound 0.3 µM, first compound 0.03 µM
  viability, T/C: 67.5%
Second compound 0.3 µM, first compound 0.0949 µM
  viability, T/C: 51.2%
Second compound 0.3 µM, first compound 0.3 µM
  viability, T/C: 44.5%
Second compound 0.949 µM, first compound 0.000949 µM
  viability, T/C: 68.1%
Second compound 0.949 µM, first compound 0.003 µM
  viability, T/C: 67.3%
Second compound 0.949 µM, first compound 0.00949 µM
  viability, T/C: 61%
Second compound 0.949 µM, first compound 0.03 µM
  viability, T/C: 52.1%
Second compound 0.949 µM, first compound 0.0949 µM
  viability, T/C: 37.8%
Second compound 0.949 µM, first compound 0.3 µM
  viability, T/C: 34.8%
Second compound 3 µM, first compound 0.000949 µM
  viability, T/C: 66%
Second compound 3 µM, first compound 0.003 µM
  viability, T/C: 63.6%
Second compound 3 µM, first compound 0.00949 µM
  viability, T/C: 56.9%
Second compound 3 µM, first compound 0.03 µM
  viability, T/C: 40%
Second compound 3 µM, first compound 0.0949 µM
  viability, T/C: 30.4%
Second compound 3 µM, first compound 0.3 µM
  viability, T/C: 29%

## NC1CCC(NC2CC2c2ccccc2)CC1 (centres undefined) + CCN1C(C(=O)NC23CCC(C(=O)O)(CC2)CC3)C(c2cccc(Cl)c2F)C2(C(=O)Nc3cc(Cl)ccc32)C12CCCCC2
Second compound 0.00949 µM
  IC50: > 100 nM
Second compound 0.03 µM
  IC50: > 100 nM
Second compound 0.0949 µM
  IC50: > 100 nM
Second compound 0.3 µM
  IC50: > 100 nM
Second compound 0.949 µM
  IC50: > 100 nM
Second compound 3 µM
  IC50: > 100 nM
Second compound 0.00949 µM, first compound 0.000316 µM
  viability, T/C: 89.9%
Second compound 0.00949 µM, first compound 0.001 µM
  viability, T/C: 76.8%
Second compound 0.00949 µM, first compound 0.00316 µM
  viability, T/C: 87.3%
Second compound 0.00949 µM, first compound 0.01 µM
  viability, T/C: 91.6%
Second compound 0.00949 µM, first compound 0.0316 µM
  viability, T/C: 87.1%
Second compound 0.00949 µM, first compound 0.1 µM
  viability, T/C: 89%
Second compound 0.03 µM, first compound 0.000316 µM
  viability, T/C: 88.8%
Second compound 0.03 µM, first compound 0.001 µM
  viability, T/C: 79.3%
Second compound 0.03 µM, first compound 0.00316 µM
  viability, T/C: 83.1%
Second compound 0.03 µM, first compound 0.01 µM
  viability, T/C: 82.5%
Second compound 0.03 µM, first compound 0.0316 µM
  viability, T/C: 86.2%
Second compound 0.03 µM, first compound 0.1 µM
  viability, T/C: 75.3%
Second compound 0.0949 µM, first compound 0.000316 µM
  viability, T/C: 84.6%
Second compound 0.0949 µM, first compound 0.001 µM
  viability, T/C: 80.8%
Second compound 0.0949 µM, first compound 0.00316 µM
  viability, T/C: 77.1%
Second compound 0.0949 µM, first compound 0.01 µM
  viability, T/C: 82.8%
Second compound 0.0949 µM, first compound 0.0316 µM
  viability, T/C: 82.4%
Second compound 0.0949 µM, first compound 0.1 µM
  viability, T/C: 75.4%
Second compound 0.3 µM, first compound 0.000316 µM
  viability, T/C: 78.2%
Second compound 0.3 µM, first compound 0.001 µM
  viability, T/C: 77.3%
Second compound 0.3 µM, first compound 0.00316 µM
  viability, T/C: 71.5%
Second compound 0.3 µM, first compound 0.01 µM
  viability, T/C: 79%
Second compound 0.3 µM, first compound 0.0316 µM
  viability, T/C: 74.7%
Second compound 0.3 µM, first compound 0.1 µM
  viability, T/C: 71.9%
Second compound 0.949 µM, first compound 0.000316 µM
  viability, T/C: 67.7%
Second compound 0.949 µM, first compound 0.001 µM
  viability, T/C: 71.3%
Second compound 0.949 µM, first compound 0.00316 µM
  viability, T/C: 66.7%
Second compound 0.949 µM, first compound 0.01 µM
  viability, T/C: 67.2%
Second compound 0.949 µM, first compound 0.0316 µM
  viability, T/C: 71.5%
Second compound 0.949 µM, first compound 0.1 µM
  viability, T/C: 65.8%
Second compound 3 µM, first compound 0.000316 µM
  viability, T/C: 69.4%
Second compound 3 µM, first compound 0.001 µM
  viability, T/C: 68%
Second compound 3 µM, first compound 0.00316 µM
  viability, T/C: 66.5%
Second compound 3 µM, first compound 0.01 µM
  viability, T/C: 65.8%
Second compound 3 µM, first compound 0.0316 µM
  viability, T/C: 71%
Second compound 3 µM, first compound 0.1 µM
  viability, T/C: 64.3%
